{"source": "paper PMC10108392", "about": "“Rimonabant-Based Compounds Bearing Hydrophobic Amino Acid Derivatives as Cannabinoid Receptor Subtype 1 Ligands” (ACS Medicinal Chemistry Letters, 2023)", "key": {"[1]": {"target": "T1, CB1R (Rattus norvegicus, UniProt P20272)", "T1 construct": "Crude membrane fractions were prepared from the brain; from tissue; host or cells: Wistar rat whole brain, crude membrane fraction", "T1 sequence (P20272 whole entry)": "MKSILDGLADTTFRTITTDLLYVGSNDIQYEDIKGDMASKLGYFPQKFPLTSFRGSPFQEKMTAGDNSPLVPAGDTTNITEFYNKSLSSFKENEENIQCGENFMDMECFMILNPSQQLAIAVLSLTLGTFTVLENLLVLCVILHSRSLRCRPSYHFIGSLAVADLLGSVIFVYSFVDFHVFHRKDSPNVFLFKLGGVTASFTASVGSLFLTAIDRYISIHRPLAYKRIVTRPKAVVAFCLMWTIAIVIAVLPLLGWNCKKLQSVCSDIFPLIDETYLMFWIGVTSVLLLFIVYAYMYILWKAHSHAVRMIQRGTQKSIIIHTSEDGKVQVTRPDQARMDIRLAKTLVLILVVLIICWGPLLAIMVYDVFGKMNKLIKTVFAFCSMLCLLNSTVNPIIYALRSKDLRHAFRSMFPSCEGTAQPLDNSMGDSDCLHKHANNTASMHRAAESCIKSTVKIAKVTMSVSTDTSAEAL", "experiment": "[3H]WIN55,212-2 radioligand competition binding assay in rat brain membrane homogenate", "conditions": "read-out: Ki [3H]WIN55,212-2 binding, 5 nM [3H]WIN55,212-2, ± SEM, n.b. = no binding of ligands was observed", "experimental": "(§1) Our novel chemical compounds were tested in vitro for their binding ability, efficacy, and potency on CB1R in rat brain membrane homogenate (Table 2 and SI, Figure S1). CB1Rs are the most abundant G-protein coupled receptors in the rodent and mammalian brain; therefore, this is an appropriate model to characterize our ligands in a more physiological system.\n(§2) In Vitro Biological Assays\n(§3) Preparation of Brain Membrane Homogenates\n(§4) Wistar rats were locally bred and handled according to the EU Directive 2010/63/EU and to the Regulations on Animal Protection (40/2013. (II. 14.) Korm. r.) of Hungary. Crude membrane fractions were prepared from the brain. Brains were quickly removed from the euthanized rats and directly put in an ice-cold 50 mM Tris-HCl buffer (pH 7.4). The collected tissue was then homogenized in 30 volumes (v/w) of an ice-cold buffer with a Braun Teflon-glass homogenizer at the highest rpm. The homogenate was centrifuged at 20,000 × g for 25 min, and the resulting pellet was suspended in the same volume of a cold buffer followed by incubation at 37 °C for 30 min to remove endogenous ligands. Centrifugation was then repeated. The final pellets were taken up in five volumes of a 50 mM Tris-HCl (pH 7.4) buffer containing 0.32 M sucrose and stored at -80 °C. Prior to the experiment, aliquots were thawed and centrifuged at 20,000 ×g for 25 min and then they were resuspended in 50 mM Tris-HCl (pH 7.4), homogenized with a Douncer, followed by the determination of the protein concentration by the method of Bradford. The membrane suspensions were immediately used either in radioligand binding experiments or in [35S]GTPγS functional assays.\nRadioligand Competition Binding Assay\nBinding experiments were performed at 30 °C for 60 min in a 50 mM Tris-HCl binding buffer (pH 7.4) containing 2.5 mM of EGTA, 5 mM of MgCl2 and 0.5 mg/mL of fatty acid-free BSA in plastic tubes in a total assay volume of 1 mL that contained 0.3-0.5 mg/mL of a membrane protein. Competition binding […]\nligands. […] The incubation […]\nwas terminated by diluting the samples with an ice-cold wash buffer (50 mM of Tris-HCl, 2.5 mM of EGTA, 5 mM of MgCl2, 0.5% fatty acid free BSA, pH 7.4), followed by repeated washing and rapid filtration through Whatman GF/B glass fiber filters (Whatman Ltd., Maidstone, UK) pre-soaked with 0.1% polyethyleneimine (30 min before the filtration). Filtration was performed with a 24-well Brandel Cell Harvester (Gaithersburg, MD, USA). Filters were air-dried and immersed into Ultima Gold MV scintillation cocktail, and then radioactivity was measured with a TRI-CARB 2100TR liquid scintillation analyzer (Packard, Perkin Elmer, Waltham, MA, USA). […]\nThe results of the competition binding studies are reported as means ± S.E.M. of at least three independent experiments each performed in duplicate. In competition binding studies, the inhibitory constants (Ki) were calculated from the inflection points of the displacement curves using non-linear least-square curve fitting and the Cheng-Prusoff equation, Ki= […]/(1 + [ligand]/Kd). […]"}, "[2]": {"test_system": "mice", "experiment": "Zymosan-induced paw edema", "assay_type": "in vivo, mouse", "experimental": "Drugs were administered s.c. in the dorsal surface of the right hind paw at the dose of 100 μg/20 μL, 15 min before zymosan. […]\ntesting. […] Then, the compounds were\nCompounds were prepared by freshly diluting\nThen, these solutions were injected for\nThe total time the animal spent licking or biting its paw was calculated.\nThen, paw edema was calculated as formerly\nPaw volume was quantified using a\nData Analysis and Statistics\nStatistically significant differences between\nData were considered statistically\nThe data and statistical analyses respected the recommendations on experimental design and analysis."}, "[3]": {"target": "T1, CB1R", "experiment": "Ligand stimulated [35S]GTPγS binding assay in rat brain membranes", "assay_type": "biochemical", "conditions": "rat brain membranes", "experimental": "as §1, §2, §3\nas §4, with “assays. […]” for “assays.”\nwas terminated by diluting the samples with an ice-cold wash buffer (50 mM of Tris-HCl, 2.5 mM of EGTA, 5 mM of MgCl2, 0.5% fatty acid free BSA, pH 7.4), followed by repeated washing and rapid filtration through Whatman GF/B glass fiber filters (Whatman Ltd., Maidstone, UK) pre-soaked with 0.1% polyethyleneimine (30 min before the filtration). Filtration was performed with a 24-well Brandel Cell Harvester (Gaithersburg, MD, USA). Filters were air-dried and immersed into Ultima Gold MV scintillation cocktail, and then radioactivity was measured with a TRI-CARB 2100TR liquid scintillation analyzer (Packard, Perkin Elmer, Waltham, MA, USA).\nLigand Stimulated [35S]GTPγS Binding Assay\nRat brain membranes (30 µg protein/tube), prepared as described above, were incubated with 0.05 nM of […]\nmM of NaCl, 3 mM of MgCl2 and 1 mM of EGTA in a 50 mM Tris-HCl buffer (pH 7.4) for 60 min at 30 °C. Basal [35S]GTPγS binding was measured in the absence of ligands and set as 100%. Nonspecific […]\nbinding was determined by the addition of 10 µM unlabelled GTPγS and subtracted from total binding.\nIncubation, filtration and radioactivity measurements of the samples were carried out as described above. […]\nAll […]\ndata and curves were analyzed by GraphPad Prism 5.0 (San Diego, CA, USA)."}}, "note": "“Also recorded” adds a separate entry of the source."}
{"compound": "CNC(=O)[C@@H](NC(=O)c1nn(-c2ccc(Cl)cc2)c(-n2cccc2)c1C)C(C)(C)C", "note": "[Compound 34, RS2691-tLeu-NHCH3]", "values": [{"measurement": "Ki", "setting": "[1]", "result": "6.9 ± 1.8", "unit": "nM"}, {"measurement": "anti-inflammatory effect on zymosan-induced paw volume increase", "setting": "[2]; 100 μg/20 μL s.c., 15 min before zymosan", "result": "significantly reduce paw volume increase induced by zymosan from 1 to 4 h; also recorded: reduced the paw volume increase from 1 to 4 h"}, {"measurement": "percentage of paw volume in zymosan-induced hindlimb edema", "setting": "[2]; s.c. injection, for 24 h", "result": "below 75%"}, {"measurement": "CB1R functional profile (agonist / antagonist / inverse agonist)", "setting": "[3]; from [35S]GTPγS binding", "result": "agonist"}, {"measurement": "EC50", "setting": "[3]; ± SEM, read-out: [35S]GTPγS stimulation EC50", "result": "46 ± 4.1", "unit": "nM"}]}
